Test results taken from patent US12011450B2, “Polyethylene glycol-conjugated glucocorticoid prodrugs and compositions and methods thereof” (Board of Regents of the University of Nebraska, priority 2015, dated 2024).
Entries after “also recorded” stand apart in the source; their conditions may differ.

What was measured:
[1] = tested on: NZB/W F1 mice kidneys; assay: Histological evaluation of PAS-stained kidney sections; format: in vivo; conditions: 2-month treatment end point
Description: The tissues were formalin-fixed, sectioned (3 μm) and periodic-acid schiff (PAS) stained for visual examination and 4 point grading by a pathologist, who is blind to the group design.
The periodic-acid schiff (PAS) stained kidney sections were also graded by a histopathologic score system with a 4-point scale.

[2] = tested on: NZB/W F1 mice; conditions: mouse, in vivo
[3] = tested on: NZB/W F1 mice; conditions: mouse, in vivo; remark: listed apart in the source
Description: Therefore, at necropsy, we determined the mass of the adrenal glands in each mouse.

[4] = tested on: anti-dsDNA IgG; assay: Serum anti-dsDNA IgG level; format: in vivo, mice; conditions: 4 and 8 weeks post-treatment initiation
[5] = tested on: NZB/W F1 mice; conditions: mouse, in vivo; remark: listed apart in the source
Description: Therefore, we monitored peripheral white blood cell (WBC) counts and during the experimental time course.

[6] = tested on: MCP-1, IFN-β, IFN-γ; assay: Serum inflammatory cytokine/chemokine analysis; format: in vivo, mice; conditions: end of 2-month treatment
Protocol: Their urine protein level was monitored weekly using Albustix Reagent Strips (Siemens Healthineers). Only mice with established nephritis, as evidenced by sustained albuminuria (≥100 mg/dL) over 2 weeks, were enrolled in the study. […] The Dex treatment (dexamethasone 21-phosphate disodium, 1.32 mg/kg, containing 1.00 mg/kg of dexamethasone, n=11) was given as daily i.v. injection. All treatments continued for 8 weeks. The body weight and proteinuria level of the animals was monitored on a weekly basis. Peripheral blood was collected from saphenous vein every 4 weeks for serum analyses. […] The surviving mice were monitored for an additional two weeks after the last treatment. The mice were then euthanized by CO2 asphyxiation, with all major tissues and organs isolated, weighted and processed at necropsy.
For inflammatory cytokine/chemokine analysis, the data obtained were log 2 transformed to make them more normally distributed. The mixed effects model with AR(1) correlation among repeated measures over time of the same animal were used to fit the log transformed cytokine expression values for each cytokine separately. […]

C[C@@H]1C[C@H]2[C@@H]3CCC4=CC(=O)C=C[C@]4(C)[C@@]3(F)[C@@H](O)C[C@]2(C)[C@@]1(O)C(=O)COP(=O)([O-])[O-].[Na+].[Na+] [Dex, dexamethasone 21-phosphate disodium]
glomeruli with histological abnormities [1]: 40% | mice graded as severe glomerulonephritis (scored 3 and 4 points) ([1]; 4-point scale): more than 40% | total serum IgG level [2]: significant drop of serum IgG value | adrenal gland mass [3]: significantly lower than the PEG-DiDex group | serum anti-dsDNA IgG level [4]: significantly reduce; also recorded: significantly reduced the antibody level | peripheral white blood cell (WBC) counts [5]: lower than the saline group, even though there was no significant difference | change in serum MCP-1, IFN-β and IFN-γ values [6]: did not induce the improvement
